The target of one experiment is T1, Recombinant JAK1 (Homo sapiens, UniProt P23458).
T1 construct: purchased Carna Biosciences
As to the kind of experiment: JAK biochemical assay (LANCE Ultra TR-FRET), JAK1. The gist of the method: (§1)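 Kinase reactions ran in buffer of 50 mM HEPES pH 7.5 with 1 mM EGTA, 10 mM MgCl2, 2 mM DTT and 0.01% Tween-20, using recombinant enzyme. Phosphorylated ULight substrate was detected by TR-FRET, and compound effect expressed as % inhibition against vehicle.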

Another experiment has as its target T2, Recombinant JAK3 (Homo sapiens, UniProt P52333).
T2 construct: purchased Carna Biosciences
T2 sequence (P52333 1-1124): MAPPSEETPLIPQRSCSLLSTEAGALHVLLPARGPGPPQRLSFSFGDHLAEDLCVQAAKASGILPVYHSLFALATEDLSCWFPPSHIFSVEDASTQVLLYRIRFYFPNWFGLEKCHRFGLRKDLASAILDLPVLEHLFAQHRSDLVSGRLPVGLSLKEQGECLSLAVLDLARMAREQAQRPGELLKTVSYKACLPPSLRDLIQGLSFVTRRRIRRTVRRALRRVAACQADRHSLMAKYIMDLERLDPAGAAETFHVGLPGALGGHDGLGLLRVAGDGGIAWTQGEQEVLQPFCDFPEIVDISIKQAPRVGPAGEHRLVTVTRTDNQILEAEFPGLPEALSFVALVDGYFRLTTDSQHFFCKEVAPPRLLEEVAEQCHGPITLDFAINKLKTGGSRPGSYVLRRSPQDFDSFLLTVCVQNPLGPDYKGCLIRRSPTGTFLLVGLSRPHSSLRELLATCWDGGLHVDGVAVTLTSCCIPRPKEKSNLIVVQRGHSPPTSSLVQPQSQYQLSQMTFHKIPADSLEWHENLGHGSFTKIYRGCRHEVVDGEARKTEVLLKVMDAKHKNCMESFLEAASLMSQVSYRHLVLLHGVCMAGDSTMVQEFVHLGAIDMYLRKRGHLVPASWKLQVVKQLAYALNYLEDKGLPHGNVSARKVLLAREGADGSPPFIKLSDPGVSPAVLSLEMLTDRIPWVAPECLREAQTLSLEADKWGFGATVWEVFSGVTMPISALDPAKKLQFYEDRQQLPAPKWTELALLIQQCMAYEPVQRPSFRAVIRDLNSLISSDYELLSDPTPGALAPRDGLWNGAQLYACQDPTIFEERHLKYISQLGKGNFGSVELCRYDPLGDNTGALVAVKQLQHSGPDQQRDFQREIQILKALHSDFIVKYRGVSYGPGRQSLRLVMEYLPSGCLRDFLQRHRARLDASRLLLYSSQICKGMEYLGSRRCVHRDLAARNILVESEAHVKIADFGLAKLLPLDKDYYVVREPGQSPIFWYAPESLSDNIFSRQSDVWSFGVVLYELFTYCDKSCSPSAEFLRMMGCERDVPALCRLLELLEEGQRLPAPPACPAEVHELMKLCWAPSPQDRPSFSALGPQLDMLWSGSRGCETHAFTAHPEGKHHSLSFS
As to the kind of experiment: JAK biochemical assay (LANCE Ultra TR-FRET), JAK3. The procedure, abridged:
as §1
(Time-resolved FRET reads energy transfer from a long-lived donor to a nearby acceptor.)

The subject of experiment [1] is oxazolone induced colitis. Nature of the experiment: Murine model of oxazolone induced colitis. The experiment is classed as in vivo, Male BALB/c mice. The following applies: 30 mpk, PO, BID.
The mark [2] stands for this setting: read-out: Biochemical IC50 (nM) JAK1.
Setting [3] is: recombinant JAK1, TR-FRET, read-out: Biochemical Assay (μM) JAK1.
[4] abbreviates: read-out: Biochemical IC50 (nM) JAK3.

Where two headings read alike, the source gives them in different places.

T1 sequence (P23458 whole entry): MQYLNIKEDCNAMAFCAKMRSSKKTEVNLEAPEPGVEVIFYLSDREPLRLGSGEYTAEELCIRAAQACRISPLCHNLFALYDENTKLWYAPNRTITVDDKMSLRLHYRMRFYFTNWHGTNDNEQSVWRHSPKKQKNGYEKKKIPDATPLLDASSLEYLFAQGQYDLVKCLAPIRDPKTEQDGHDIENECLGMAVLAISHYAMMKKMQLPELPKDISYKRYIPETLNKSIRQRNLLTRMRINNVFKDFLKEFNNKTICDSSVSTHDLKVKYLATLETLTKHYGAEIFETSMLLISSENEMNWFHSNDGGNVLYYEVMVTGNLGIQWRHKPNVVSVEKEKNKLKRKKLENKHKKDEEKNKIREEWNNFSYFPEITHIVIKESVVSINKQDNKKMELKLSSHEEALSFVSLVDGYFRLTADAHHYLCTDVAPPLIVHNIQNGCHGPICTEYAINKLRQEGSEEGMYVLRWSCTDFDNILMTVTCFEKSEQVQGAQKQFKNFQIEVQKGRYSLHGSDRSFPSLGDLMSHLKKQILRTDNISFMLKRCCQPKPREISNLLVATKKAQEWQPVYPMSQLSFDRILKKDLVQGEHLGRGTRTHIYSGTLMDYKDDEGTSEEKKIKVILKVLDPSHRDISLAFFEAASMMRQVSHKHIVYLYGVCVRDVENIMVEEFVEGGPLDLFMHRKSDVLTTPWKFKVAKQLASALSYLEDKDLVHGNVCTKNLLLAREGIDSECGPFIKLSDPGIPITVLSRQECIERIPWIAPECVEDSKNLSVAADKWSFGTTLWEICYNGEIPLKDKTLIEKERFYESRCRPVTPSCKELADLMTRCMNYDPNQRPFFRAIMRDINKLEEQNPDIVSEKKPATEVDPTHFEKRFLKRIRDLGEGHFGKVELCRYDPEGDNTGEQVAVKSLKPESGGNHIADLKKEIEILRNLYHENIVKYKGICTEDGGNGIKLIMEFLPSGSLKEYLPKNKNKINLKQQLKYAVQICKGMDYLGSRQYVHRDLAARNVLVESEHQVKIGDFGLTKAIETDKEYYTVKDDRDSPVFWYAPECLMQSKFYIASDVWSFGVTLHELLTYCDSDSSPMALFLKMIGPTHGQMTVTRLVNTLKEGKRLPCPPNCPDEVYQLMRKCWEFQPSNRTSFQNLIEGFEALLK

`CN1CCC(C(O)(c2ccc(-n3cc(-c4ccnc5[nH]cnc45)cn3)nc2)C(F)(F)F)CC1` (centres unmarked) [Example 1133, 1-(6-(4-(3H-imidazo[4,5-b]pyridin-7-yl)-1H-pyrazol-1-yl)pyridin-3-yl)-2,2,2-trifluoro-1-(1-methylpiperidin-4-yl)ethanol]: the IC50 at Recombinant JAK1 (setting [2]) is 8 nM; at Recombinant JAK1 (setting [3]), less than 100 nM; on Recombinant JAK3 (setting [4]), 100 nM.

In the case of `CC(C)NC(=O)CC[C@@H](c1ccc(-n2cc(-c3ccnc4[nH]cnc34)cn2)nc1)C(F)(F)F` [Example 1215, (S)-4-(6-(4-(3H-imidazo[4,5-b]pyridin-7-yl)-1H-pyrazol-1-yl)pyridin-3-yl)-5,5,5-trifluoro-N-isopropylpentanamide], the “efficacy in comparison to Filgotinib (colitis model)” value in experiment [1] is listed as “better efficacy”. Also, the IC50 on Recombinant JAK1 (setting [2]) was 0.5 nM; on Recombinant JAK1 (setting [3]), less than 100 nM; at Recombinant JAK3 (setting [4]) it was 11 nM; at Recombinant JAK3 (recombinant JAK3, TR-FRET, read-out: Biochemical Assay (μM) JAK3), less than 100 nM.

The record behind these values is patent US12516056B2, “Compounds for inhibition of janus kinase 1” (MANKIND PHARMA LTD., priority 2019, dated 2026).
